Experimental data: ChEMBL document CHEMBL3862023, “Synthesis of N-aryl and N-arylcarbamoylamino derivatives of 1,3-diazinane-5-carboxamide and their activity against glioblastoma LN-229 cell line” (Bioorg Med Chem, 2016)

How the values were obtained:
[1] = Solubility of the compound in chloroform; format: physicochemical
[2] = Solubility of the compound in trifluoroacetic acid; format: physicochemical
[3] = Solubility of the compound in DMSO; format: physicochemical
[4] = Solubility of the compound in DMSO/TFA; format: physicochemical
[5] = Cytotoxicity against human LN229 cells assessed as concentration required for induction of cell death after 24 hrs by crystal violet staining based light microscopic analysis; format: functional, LN-229
[6] = Solubility of the compound in CHCl3/TFA; format: physicochemical
[7] = Solubility of the compound in isopropanol; format: physicochemical
[8] = Solubility of the compound in ethanol; format: physicochemical

In the case of `O=C(NNC(=O)C1C(=O)NC(=O)N(c2ccccc2)C1=O)Nc1ccc(Cl)cc1` (centres undefined), the solubility [1] is reported as “Insoluble”, the solubility [2] is reported as “Insoluble” and the solubility [3] is reported as “Insoluble”. The solubility [4] was “Insoluble”, the Activity [5] was 100 µg/mL and the solubility [6] was “Insoluble”. The solubility [7] was “Insoluble” and the solubility [8] was “Insoluble”.

In the case of `CN1C(=O)C(C(=O)NNC(=O)Nc2ccc([N+](=O)[O-])cc2)C(=O)N(C)C1=O`, the solubility [1] is reported as “Insoluble”, the solubility [2] is reported as “Insoluble” and the solubility [3] is reported as “Insoluble”. For the same molecule, the solubility [4] was “Insoluble”, the Activity [5] was 10 µg/mL and the solubility [6] was “Insoluble”. The solubility [7] was “Insoluble” and the solubility [8] was “Insoluble”.

In the case of `O=C(NNC(=O)C1C(=O)NC(=O)N(c2ccccc2)C1=O)Nc1cccc(O)c1` (centres undefined), the solubility [1] is reported as “Insoluble”, the solubility [2] is reported as “Insoluble” and the solubility [3] is reported as “Insoluble”. For the same molecule, the solubility [4] was “Insoluble”, the solubility [6] was “Insoluble” and the solubility [7] was “Insoluble”. The solubility [8] was “Insoluble”.

In the case of `CN1C(=O)NC(=O)C(C(=O)NNC(=O)Nc2ccc(Cl)c(Cl)c2)C1=O` (centres undefined), the solubility [1] is reported as “Insoluble”, the solubility [2] is reported as “Insoluble” and the solubility [3] is reported as “Insoluble”. For the same molecule, the solubility [4] was “Insoluble”, the solubility [6] was “Insoluble” and the solubility [7] was “Insoluble”. For the same molecule, the solubility [8] was “Insoluble”.

In the case of `O=C(NNC(=O)C1C(=O)NC(=O)N(c2ccccc2)C1=O)Nc1ccc(F)cc1` (centres undefined), the solubility [1] is reported as “Insoluble”, the solubility [2] is reported as “Insoluble” and the solubility [3] is reported as “Insoluble”. The solubility [4] was “Insoluble”, the solubility [6] was “Insoluble” and the solubility [7] was “Insoluble”. For the same molecule, the solubility [8] was “Insoluble”.

For `O=C(NNC(=O)C1C(=O)NC(=O)N(c2ccccc2)C1=O)Nc1ccc(Cl)c(Cl)c1` (centres undefined), the solubility [1] was “Insoluble”, the solubility [2] was “Insoluble” and the solubility [3] was “Insoluble”. For the same molecule, the solubility [4] was “Insoluble”, the Activity [5] was 100 µg/mL and the solubility [6] was “Insoluble”. For the same molecule, the solubility [7] was “Insoluble” and the solubility [8] was “Insoluble”.

In the case of `CN1C(=O)NC(=O)C(C(=O)NNC(=O)Nc2ccc(O)c([N+](=O)[O-])c2)C1=O` (centres undefined), the solubility [1] is reported as “Insoluble”, the solubility [2] is reported as “Insoluble” and the solubility [3] is reported as “Insoluble”. For the same molecule, the solubility [4] was “Insoluble”, the solubility [6] was “Insoluble” and the solubility [7] was “Insoluble”. The solubility [8] was “Insoluble”.

For `O=C1NC(=O)C(C(=O)NNC(=O)Nc2ccccc2)C(=O)N1`, the solubility [1] was “Insoluble”, the solubility [2] was “Soluble” and the solubility [3] was “Insoluble”. The solubility [4] was “Soluble”, the Activity [5] was 100 µg/mL and the solubility [6] was “Soluble”. For the same molecule, the solubility [7] was “Insoluble” and the solubility [8] was “Insoluble”.

In the case of `O=C(NNC(=O)C1C(=O)NC(=O)N(c2ccccc2)C1=O)Nc1ccccc1` (centres undefined), the solubility [1] is reported as “Insoluble”, the solubility [2] is reported as “Insoluble” and the solubility [3] is reported as “Insoluble”. The solubility [4] was “Insoluble”, the solubility [6] was “Insoluble” and the solubility [7] was “Insoluble”. The solubility [8] was “Insoluble”.

For `CN1C(=O)C(C(=O)NNC(=O)Nc2ccc(O)cc2)C(=O)N(C)C1=O`, the solubility [1] was “Insoluble”, the solubility [2] was “Insoluble” and the solubility [3] was “Insoluble”. The solubility [4] was “Insoluble”, the Activity [5] was 10 µg/mL and the solubility [6] was “Insoluble”. The solubility [7] was “Insoluble” and the solubility [8] was “Insoluble”.

With `O=C1NC(=O)C(C(=O)NNC(=O)Nc2ccc(Cl)cc2)C(=O)N1` the solubility [1] was “Insoluble”, the solubility [2] was “Soluble” and the solubility [3] was “Insoluble”. The solubility [4] was “Soluble”, the Activity [5] was 100 µg/mL and the solubility [6] was “Soluble”. The solubility [7] was “Insoluble” and the solubility [8] was “Insoluble”.

With `CN1C(=O)C(C(=O)NNC(=O)Nc2ccc(Cl)cc2)C(=O)N(C)C1=O` the solubility [1] was “Insoluble”, the solubility [2] was “Insoluble” and the solubility [3] was “Insoluble”. For the same molecule, the solubility [4] was “Insoluble”, the Activity [5] was 10 µg/mL and the solubility [6] was “Insoluble”. The solubility [7] was “Insoluble” and the solubility [8] was “Insoluble”.

For `CN1C(=O)C(C(=O)NNC(=O)Nc2ccccc2)C(=O)N(C)C1=O`, the solubility [1] was “Insoluble”, the solubility [2] was “Insoluble” and the solubility [3] was “Insoluble”. The solubility [4] was “Insoluble”, the solubility [6] was “Insoluble” and the solubility [7] was “Insoluble”. For the same molecule, the solubility [8] was “Insoluble”.

In the case of `CN1C(=O)NC(=O)C(C(=O)NNC(=O)Nc2ccc([N+](=O)[O-])cc2)C1=O` (centres undefined), the solubility [1] is reported as “Insoluble”, the solubility [2] is reported as “Insoluble” and the solubility [3] is reported as “Insoluble”. The solubility [4] was “Insoluble”, the Activity [5] was 100 µg/mL and the solubility [6] was “Insoluble”. For the same molecule, the solubility [7] was “Insoluble” and the solubility [8] was “Insoluble”.

With `CN1C(=O)C(C(=O)NNC(=O)Nc2ccc(C#N)cc2)C(=O)N(C)C1=O` the solubility [1] was “Insoluble”, the solubility [2] was “Insoluble” and the solubility [3] was “Insoluble”. For the same molecule, the solubility [4] was “Insoluble”, the Activity [5] was 100 µg/mL and the solubility [6] was “Insoluble”. The solubility [7] was “Insoluble” and the solubility [8] was “Insoluble”.

For `CN1C(=O)C(C(=O)NNC(=O)Nc2ccc(O)c([N+](=O)[O-])c2)C(=O)N(C)C1=O`, the solubility [1] was “Insoluble”, the solubility [2] was “Insoluble” and the solubility [3] was “Insoluble”. The solubility [4] was “Insoluble”, the Activity [5] was 10 µg/mL and the solubility [6] was “Insoluble”. For the same molecule, the solubility [7] was “Insoluble” and the solubility [8] was “Insoluble”.

For `CN1C(=O)C(C(=O)NNC(=O)Nc2cccc(O)c2)C(=O)N(C)C1=O`, the solubility [1] was “Insoluble”, the solubility [2] was “Insoluble” and the solubility [3] was “Insoluble”. The solubility [4] was “Insoluble”, the solubility [6] was “Insoluble” and the solubility [7] was “Insoluble”. For the same molecule, the solubility [8] was “Insoluble”.

In the case of `CN1C(=O)NC(=O)C(C(=O)NNC(=O)Nc2ccc(C#N)cc2)C1=O` (centres undefined), the solubility [1] is reported as “Insoluble”, the solubility [2] is reported as “Insoluble” and the solubility [3] is reported as “Insoluble”. The solubility [4] was “Insoluble”, the solubility [6] was “Insoluble” and the solubility [7] was “Insoluble”. For the same molecule, the solubility [8] was “Insoluble”.

In the case of `CN1C(=O)C(C(=O)NNC(=O)Nc2ccc(F)cc2)C(=O)N(C)C1=O`, the solubility [1] is reported as “Insoluble”, the solubility [2] is reported as “Insoluble” and the solubility [3] is reported as “Insoluble”. For the same molecule, the solubility [4] was “Insoluble”, the Activity [5] was 100 µg/mL and the solubility [6] was “Insoluble”. For the same molecule, the solubility [7] was “Insoluble” and the solubility [8] was “Insoluble”.

With `CN1C(=O)NC(=O)C(C(=O)NNC(=O)Nc2ccc(Cl)cc2)C1=O` (centres undefined) the solubility [1] was “Insoluble”, the solubility [2] was “Insoluble” and the solubility [3] was “Insoluble”. For the same molecule, the solubility [4] was “Insoluble”, the Activity [5] was 100 µg/mL and the solubility [6] was “Insoluble”. For the same molecule, the solubility [7] was “Insoluble” and the solubility [8] was “Insoluble”.

For `O=C(NNC(=O)C1C(=O)NC(=O)N(c2ccccc2)C1=O)Nc1ccc(O)cc1` (centres undefined), the solubility [1] was “Insoluble”, the solubility [2] was “Insoluble” and the solubility [3] was “Insoluble”. The solubility [4] was “Insoluble”, the solubility [6] was “Insoluble” and the solubility [7] was “Insoluble”. For the same molecule, the solubility [8] was “Insoluble”.
